Laboratory results as given in patent US9101573B2, “Lanthionine synthetase component C-like proteins as molecular targets for preventing and treating diseases and disorders” (VIRGINIA TECH INTELLECTUAL PROPERTIES, INC., priority 2010, dated 2015).

Tests used:
LANCL2 = target: T1, LANCL2 (Mus musculus, UniProt Q9JJK2); assay: Western blot binding assay between ABA and LANCL2; details: RAW 264.7 macrophages treated with ABA for 20 minutes; re-probing western blot; control without ABA showed no band
T1 construct: Proteins were extracted from Raw 264.7 Macrophage using Radio-Immunoprecipitation Assay buffer; endogenous in cells; host or cells: RAW 264.7 macrophages
T1 sequence (Q9JJK2 1-450): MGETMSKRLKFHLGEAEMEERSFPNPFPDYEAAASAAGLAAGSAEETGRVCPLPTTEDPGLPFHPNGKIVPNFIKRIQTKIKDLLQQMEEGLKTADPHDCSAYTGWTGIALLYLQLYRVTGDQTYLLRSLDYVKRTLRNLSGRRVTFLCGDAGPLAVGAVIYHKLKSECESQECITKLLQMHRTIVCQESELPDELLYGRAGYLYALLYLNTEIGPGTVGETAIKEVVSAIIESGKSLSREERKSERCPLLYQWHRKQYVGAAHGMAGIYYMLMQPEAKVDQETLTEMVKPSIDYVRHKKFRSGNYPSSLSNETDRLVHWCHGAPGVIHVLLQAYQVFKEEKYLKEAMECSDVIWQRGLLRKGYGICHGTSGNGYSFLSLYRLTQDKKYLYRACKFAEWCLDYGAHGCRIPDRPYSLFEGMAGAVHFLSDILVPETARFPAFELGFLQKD
Description: RAW 264.7 macrophages were cultured with DMEM (Mediatech, Manassas, Va.) containing 10% fetal bovine serum (FBS) in two flasks and grown until 60-70% confluence. RAW 264.7 macrophages in one flask were treated with abscisic acid (SIGMA-ALDRICH) for 20 minutes. RAW 264.7 macrophages in the other flask without ABA were used as control. Proteins were extracted from Raw 264.7 Macrophage using Radio-Immunoprecipitation Assay buffer (RIPA) (SIGMA-ALDRICH) with inhibitors. 10% SDS-PAGE was applied to analyze the proteins in Bio-Rad mini-gel box running condition. For Western blotting, proteins were electrotransferred to nitrocellulose by standard methods along with the Presicion Plus Kaleidoscope Standard (BIO-RAD). Filters were blocked by 5% BSA in TBS-Tween for 1 hour, followed by incubation with rabbit anti-LANCL2 primary antibody (SIGMA-ALDRICH) in TBS-Tween for 6 hours at room temperature. Goat anti-rabbit horseradish peroxidase-conjugated secondary antibodie (Santa Cruz Biotechnology) was used 1:2,000 in TBS-Tween, and protein bands were detected with Immun-Star™ chemiluminescent substrate (BIO-RAD). […] Donkey anti-rat horseradish peroxidase-conjugated secondary antibodie (Santa Cruz Biotechnology) was used 1:2,000 in TBS-Tween, and protein bands were detected with Immun-Star™ chemiluminescent substrate (BIO-RAD).

[1] = target: T2, ligand-binding domain (LBD) of PPAR γ (Homo sapiens, UniProt P37231); assay: Binding of ABA to PPAR γ LBD (unpublished data)
T2 sequence (P37231 238-503 limits assumed): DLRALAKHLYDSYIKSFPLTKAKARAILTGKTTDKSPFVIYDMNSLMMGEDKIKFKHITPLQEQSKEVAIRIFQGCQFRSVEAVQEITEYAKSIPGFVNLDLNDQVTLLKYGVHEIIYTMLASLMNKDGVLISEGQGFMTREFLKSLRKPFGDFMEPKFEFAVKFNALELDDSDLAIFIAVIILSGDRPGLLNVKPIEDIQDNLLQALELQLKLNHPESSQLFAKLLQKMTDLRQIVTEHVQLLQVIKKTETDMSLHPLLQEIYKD

[2] = system: mouse model of DSS-induced colitis; assay: DSS-induced colitis (experimental IBD) in C57BL/6J wild-type mice; type: in vivo
Description: Six to eight week old C57BL/6J wild-type mice (n=38) were housed at the animal facilities at Virginia Tech. in a room maintained at 75° F., with a 12:12 h light-dark cycle starting from 6:00 AM. Mice were randomly divided into four groups: a control group including 8 mice and the other three NSC61610 treatment groups containing 10 mice each. The three treatment groups received 0.5, 10 or 20 mg/kg NSC61610 by orogastric gavage for 7 days. All the mice were challenged with drinking water containing 2.5% DSS, 36,000-44,000 molecular weight (ICN Biomedicals, Aurora, Ohio) for 7 days. Mice were weighed on a daily basis and examined for clinical signs of disease associated with colitis (i.e., perianal soiling, rectal bleeding, diarrhea, and piloerection). For the DSS challenge, the disease activity indices and rectal bleeding scores were calculated using a modification of a previously published compounded clinical score. Briefly, disease activity index consisted of a scoring for diarrhea and lethargy (0-3), whereas rectal bleeding consisted of a visual observation of blood in feces and the perianal area (0-4). Mice in the DSS study were euthanized on day 7 of the DSS challenge. On day 7, mice were euthanized by CO2 narcosis followed by secondary thoracotomy and blood was withdrawn from the heart. Colon, spleen, and MLN were scored based on size and macroscopic inflammatory lesions (0-3), excised, and then crushed to produce single-cell suspensions for flow cytometry.
Colonic sections were fixed in 10% buffered neutral formalin, later embedded in paraffin, and then sectioned ([…]) and stained with H&E stain for histological examination. Colons were blindly graded with a compounded histological score including the extent of (1) leukocyte infiltration. (2) mucosal thickening, and (3) epithelial cell erosion. The sections were graded with a score of 0-4 for each of the previous categories and data were analyzed as a normalized compounded score.
Total RNA was isolated from colons using the RNA isolation Minikit (Qiagen) according to the manufacturer's instructions. Total RNA ([…]) was used to generate complementary DNA (cDNA) template using the iScript cDNA Synthesis Kit (Bio-Rad, Hercules, Calif.). The total reaction volume was 20 μL with the reaction incubated as follows in an MJ MiniCycler: 5 min at 25° C., 30 min at […], 5 min at 85° C., and hold at 4° C. PCR was performed on the cDNA using Taq DNA polymerase (Invitrogen, Carlsbad, Calif.) and using previously described conditions. Each gene amplicon was purified with the MiniElute PCR Purification Kit (Qiagen) and quantitated on an agarose gel by using a DNA mass ladder (Promega). These purified amplicons were used to optimize real-time (RT)-PCR conditions and to generate standard curves. Primer concentrations and annealing temperatures were optimized for the iCycler iQ system (Bio-Rad) for each set of primers using the system's gradient protocol. PCR efficiencies were maintained between 92 and 105% and correlation coefficients above 0.98 for each primer set during optimization and also during the real-time PCR of sample DNA.
Complementary DNA (cDNA) concentrations for genes of interest were examined by real-time quantitative PCR using an iCycler IQ System and the iQ SYBR green supermix (Bio-Rad). A standard curve was generated for each gene using 10-fold dilutions of purified amplicons starting at 5 pg of cDNA and used later to calculate the starting amount of target cDNA in the unknown samples. SYBR green I is a general double-stranded DNA intercalating dye and may therefore detect non-specific products and primer/dimers in addition to the amplicon of interest. In order to determine the number of products synthesized during the real-time PCR, a melting curve analysis was performed on each product. Real-time PCR was used to measure the starting amount of nucleic acid of each unknown sample of cDNA on the same 96-well plate. […]

PPAR γ = PPAR γ reporter activity assay on 3T3-L1 pre-adipocytes; type: cell-based; details: 2.5 μM, 24 hours, vs untreated cells
Description: 3T3-L1 cells were plated into white, opaque 96-well plates (BD) 24 hours before transfection and grown in DMEM containing 10% fetal bovine serum (FBS) until 70% confluence. Cells were then co-transfected with 0.2 μg pCMX.PPAR γ expression plasmid expression plasmid, 0.2 μg pTK.PPRE3x luciferase reporter plasmid driven by the PPRE-containing Acyl-CoA oxidase promoter and 0.2 μg pRL reporter control using the Lipofectamine 2000 transfection reagent (Invitrogen). After 48 hr incubation at 37° C., cells were then treated in replicates of 8 with NSC61610 2.5 μM or DMSO control and incubated for 24 hr at 37° C. After incubation, cells were harvested in reporter lysis reagent and luciferase activity was determined using the Dual Luciferase II reporter assay system (Promega, Madison, Wis.) in Modulus 96-well luminometer (Turner Biosystems, Sunnyvale, Calif.). All values were normalized to control wells to calculate relative luciferase activity.

[3] = system: mouse model of DSS-induced colitis, PPAR γ fl/fl Cre−, CD4-Cre+ and Lysozyme M-Cre+ mice; assay: DSS colitis in tissue-specific PPAR γ null mice; type: in vivo
Description: PPAR γ fl/fl MMTV-Cre− (n=20), tissue-specific PPAR γ fl/fl CD4-Cre+ ([…]) PPAR γ null mice (n=20) and tissue-specific PPAR γ fl/fl Lsozyme M-Cre+ (macrophage-deficient) PPAR γ null mice (n=20) littermates in a C57BL/6J background were generated by using the Cre-lox recombination system as previously described. The mice were housed at the animal facilities at Virginia Tech. in a room maintained at 75° F., with a 12:12 h light-dark cycle starting from 6:00 AM. In each group, 20 mice were randomly divided into two groups: a control group including 10 mice and a NSC61610 treatment groups containing 10 mice respectively. The three treatment groups received 20 mg/kg NSC61610 by orogastric gavage for 6 days. All the mice (n=60) were challenged with drinking water containing 2.5% DSS, 36,000-44,000 molecular weight (ICN Biomedicals, Aurora, Ohio) for 6 days. Mice were weighed on a daily basis and examined for clinical signs of disease associated with colitis (i.e., perianal soiling, rectal bleeding, diarrhea, and piloerection). For the DSS challenge, the disease activity indices and rectal bleeding scores were calculated using a modification of a previously published compounded clinical score. Briefly, disease activity index consisted of a scoring for diarrhea and lethargy (0-3), whereas rectal bleeding consisted of a visual observation of blood in feces and the perianal area (0-4). Mice in the DSS study were euthanized on day 6 of the DSS challenge. On day 6, mice were euthanized by CO2 narcosis followed by secondary thoracotomy and blood was withdrawn from the heart. Colon, spleen, and MLN were scored based on size and macroscopic inflammatory lesions (0-3), excised, and then crushed to produce single-cell suspensions for flow cytometry.

[4] = system: pandemic 2009 H1N1 influenza A California/09 virus; assay: Pandemic H1N1 influenza virus infection in mice; type: in vivo
[5] = 0.5, 10 and 20 mg/kg, day 7 of DSS
[6] = highest concentration, flow cytometry

With `CC1=CC(=O)CC(C)(C)[C@@]1(O)/C=C/C(C)=C\C(=O)O` [abscisic acid, [S-(Z,E)]-5-(1-Hydroxy-2,6,6-trimethyl-4-oxo-2-cyclohexen-1-yl)-3-methyl-2,4-pentanedienoic acid] the “band with anti-ABA antibody at the LANCL2 location on the membrane” value (LANCL2) was “clear band” and the “direct binding to the LBD of PPAR γ” value [1] was “does not bind directly”.
In the case of `O=C(Nc1cccc(-c2nc3ccccc3[nH]2)c1)c1ccc(C(=O)Nc2cccc(-c3nc4ccccc4[nH]3)c2)cc1` [NSC61610, 1-N,4-N-bis[3-(1H-benzimidazol-2-yl)phenyl]benzene-1,4-dicarboxamide], the “disease activity index (DAI)” value ([2]; 0.5, 10 and 20 mg/kg BW orogastric gavage, 7 days, 2.5% DSS, vs untreated control mice) is reported as “significantly reduced”, the “gross inflammation in MLN” value [2, 5] is reported as “significantly reduced” and the “gross inflammation in colon” value [2, 5] is reported as “significantly reduced”. For the same molecule, the “gross inflammation in spleen” value [2, 5] was “significantly reduced”, the “numbers of mesenteric lymph node (MLN) Treg” value ([2]; flow cytometry) was “No effect” and the “percentage of F4/80+CD11b+ macrophages in the colonic lamina propria” value ([2]; flow cytometry) was “reduced”. The “percentage of Treg cells in blood” value ([2]; flow cytometry) was “significantly increased”, the “percentage of Treg cells in colon” value ([2]; flow cytometry) was “significantly increased” and the “percentage of Treg cells in spleen” value ([2]; flow cytometry) was “significantly increased”. For the same molecule, the “percentage of CD4+ IL10+ T cells in MLN” value [2, 6] was “significantly increased”, the “percentage of CD4+ IL10+ T cells in blood” value [2, 6] was “significantly increased” and the “percentage of CD4+ IL10+ T cells in colon” value [2, 6] was “significantly increased”. The “percentage of CD4+ IL10+ T cells in spleen” value [2, 6] was “significantly increased”, the “PPAR γ gene expression in colon” value ([2]; maximum dose 20 mg/kg) was “enhanced PPAR γ gene expression significantly” and the “epithelial erosion (colon histology)” value ([2]; mice with DSS colitis) was “significantly reduced”. The “leukocyte infiltration (colon histology)” value ([2]; mice with DSS colitis) was “significantly reduced”, the “mucosal thickening (colon histology)” value ([2]; mice with DSS colitis) was “significantly reduced” and the “colonic expression of IL-6” value ([2]; real-time quantitative PCR) was “significantly lowered”. The “colonic expression of MCP-1” value ([2]; real-time quantitative PCR) was “significantly lowered”, the “colonic expression of TNF-α” value ([2]; real-time quantitative PCR) was “significantly lowered” and the “PPAR γ gene expression in colon” value ([2]; real-time quantitative PCR, vs control mice) was “increased”. For the same molecule, the “PPAR γ expression (dual luciferase reporter)” value (PPAR γ) was “significantly elevated”, the disease activity index ([3]; 20 mg/kg BW for 6 days during DSS challenge, vs untreated control mice) was “significantly reduced” and the macroscopic inflammatory lesions ([3]; PPAR γ-expressing mice with DSS colitis, 20 mg/kg) was “significantly reduced”. For the same molecule, the macroscopic inflammatory lesions ([3]; T cell-specific PPAR γ null mice with DSS colitis, 20 mg/kg) was “significantly reduced”, the “effect on IBD in MLNs and spleens” value ([3]; macrophage-specific PPAR γ null mice, 20 mg/kg) was “abrogated” and the “antigen-specific proliferation of splenocytes stimulated ex vivo with live virus” value ([4]; day 13 post-infection, irrespective of genotype) was “higher”. For the same molecule, the “extent of lung congestion and hyperemia (macroscopic and histological score)” value ([4]; infected mice, 20 mg/kg) was “reduced”, the influenza-related weight loss ([4]; infected mice, 20 mg/kg orogastric gavage daily, vs untreated infected mice) was “lower weight loss” and the body weight ([4]; infected treated mice, by day 13) was “began to gain weight”.
